Test results as given in ChEMBL document CHEMBL5260831, “Recent advance in oxazole-based medicinal chemistry” (Eur J Med Chem, 2018).
≈ marks a conversion by molar mass, not a printed value.

Experiments:
[1] = molecular target: Cannabinoid receptor 1 (Homo sapiens) (UniProt P21554); test: Binding affinity to CB1 receptor (unknown origin); settings: filed as agonist
Alpha-glucosidase [2] = molecular target: T1, Alpha-glucosidase (Saccharomyces cerevisiae S288c, UniProt P53341+P38158+P07265); test: Inhibition of yeast alpha-glucosidase using p-nitrophenyl-alpha-D-glucopyranoside as substrate; assay type: protein assay
Alpha-glucosidase [3] = molecular target: T1, Alpha-glucosidase; test: Inhibition of yeast alpha-glucosidase using p-nitrophenyl-alpha-D-glucopyranoside as substrate by absorbance based analysis; assay type: protein assay
A549 [4] = test: Antiproliferative activity in human A549 cells assessed as cell growth inhibition; assay type: functional, cell-based
MCF7 [5] = test: Antiproliferative activity in human MCF7 cells assessed as cell growth inhibition; assay type: functional, cell-based
HeLa = test: Antiproliferative activity in human HeLa cells assessed as cell growth inhibition; assay type: functional, cell-based
[6] = test system: Mycolicibacterium smegmatis; test: Antibacterial activity against Mycobacterium smegmatis mc2155ATCC-700084 assessed as bacterial growth inhibition measured after 18 hrs by microplate reader based analysis; assay type: functional
HepG2 [7] = test: Antiproliferative activity in human HepG2 cells assessed as cell growth inhibition; assay type: functional, cell-based
Staphylococcus aureus [8] = test: Antibiofilm activity against methicillin-sensitive Staphylococcus aureus ATCC 35556 assessed as inhibition of biofilm formation; assay type: functional
Rattus norvegicus [9] = test: Anti-inflammatory activity against Carrageenan-induced paw edema in Wistar albino rat ulcerogenic activity relative to control; assay type: functional
A549 [10] = test: Antiproliferative activity in paclitaxel-resistant human A549 cells assessed as cell growth inhibition measured after 72 hrs by SRB assay; assay type: functional, cell-based; settings: A549, 72 h
[11] = Antiproliferative activity in human SNU-601 cells assessed as cell growth inhibition measured after 72 hrs by SRB assay; assay type: functional, cell-based; settings: SNU-601, 72 h
A549 [12] = test: Antiproliferative activity in human A549 cells assessed as cell growth inhibition measured after 72 hrs by SRB assay; assay type: functional, cell-based; settings: A549, 72 h
MDA-MB-231 = test: Antiproliferative activity in human MDA-MB-231 cells assessed as cell growth inhibition measured after 72 hrs by SRB assay; assay type: functional, cell-based; settings: MDA-MB-231, 72 h
HCT-116 = test: Antiproliferative activity in human HCT-116 cells assessed as cell growth inhibition measured after 72 hrs by SRB assay; assay type: functional, cell-based; settings: HCT-116, 72 h
SK-HEP1 = test: Antiproliferative activity in human SK-HEP1 cells assessed as cell growth inhibition measured after 72 hrs by SRB assay; assay type: functional, cell-based; settings: SK-HEP1, 72 h
[13] = test system: Mycobacterium tuberculosis; test: Antimycobacterial activity against Mycobacterium tuberculosis H37Rv ATCC27294 assessed as inhibition of bacterial growth by agar dilution assay; assay type: functional
Pseudomonas aeruginosa = test: Antibacterial activity against Pseudomonas aeruginosa MTCC 741 assessed as microbial growth inhibition measured after 24 hrs by paper disc diffusion technique; assay type: functional
Bacillus cereus = test: Antibacterial activity against Bacillus cereus MTCC 430 assessed as microbial growth inhibition measured after 24 hrs by paper disc diffusion technique; assay type: functional
Rattus norvegicus [14] = test: Anti-inflammatory activity against Carrageenan-induced paw edema in albino rat ulcerogenic activity at 20 mg/kg, po relative to control; assay type: functional
Escherichia coli = test: Antibacterial activity against Escherichia coli assessed as bacterial growth inhibition by microdilution assay; assay type: functional
Staphylococcus aureus [15] = test: Antibacterial activity against Staphylococcus aureus assessed as bacterial growth inhibition by disc diffusion assay; assay type: functional
HepG2 [16] = test: Antiproliferative activity in human HepG2 cells assessed as cell growth inhibition measured after 72 hrs by MTT assay; assay type: functional, cell-based; settings: HepG2, 72 h
[17] = molecular target: Protein kinase C beta type (Homo sapiens, UniProt P05771); test: Inhibition of PKCB (unknown origin)
A549 [18] = test: Antiproliferative activity in human A549 cells assessed as cell growth inhibition measured after 72 hrs by MTT assay; assay type: functional, cell-based; settings: A549, 72 h
Rattus norvegicus [19] = test: Anti-inflammatory activity against Carrageenan-induced paw edema in rat ulcerogenic activity relative to control; assay type: functional
MCF7 [20] = test: Antiproliferative activity in human MCF7 cells assessed as cell growth inhibition measured after 48 hrs by MTT assay; assay type: functional, cell-based; settings: MCF7, 48 h
A549 [21] = test: Antiproliferative activity in human A549 cells assessed as cell growth inhibition measured after 48 hrs by MTT assay; assay type: functional, cell-based; settings: A549, 48 h
P388 = test: Antiproliferative activity gainst mouse P388 cells assessed as cell growth inhibition; assay type: functional, cell-based
Leishmania major = test: Leishmanicidal activity against Leishmania major JISH118 promastigote infected in human THP-1 macrophage cells assessed as reduction in […]; assay type: functional, organism-based; settings: JISH118, THP-1

Protein kinase C beta type, sequence (P05771 whole entry): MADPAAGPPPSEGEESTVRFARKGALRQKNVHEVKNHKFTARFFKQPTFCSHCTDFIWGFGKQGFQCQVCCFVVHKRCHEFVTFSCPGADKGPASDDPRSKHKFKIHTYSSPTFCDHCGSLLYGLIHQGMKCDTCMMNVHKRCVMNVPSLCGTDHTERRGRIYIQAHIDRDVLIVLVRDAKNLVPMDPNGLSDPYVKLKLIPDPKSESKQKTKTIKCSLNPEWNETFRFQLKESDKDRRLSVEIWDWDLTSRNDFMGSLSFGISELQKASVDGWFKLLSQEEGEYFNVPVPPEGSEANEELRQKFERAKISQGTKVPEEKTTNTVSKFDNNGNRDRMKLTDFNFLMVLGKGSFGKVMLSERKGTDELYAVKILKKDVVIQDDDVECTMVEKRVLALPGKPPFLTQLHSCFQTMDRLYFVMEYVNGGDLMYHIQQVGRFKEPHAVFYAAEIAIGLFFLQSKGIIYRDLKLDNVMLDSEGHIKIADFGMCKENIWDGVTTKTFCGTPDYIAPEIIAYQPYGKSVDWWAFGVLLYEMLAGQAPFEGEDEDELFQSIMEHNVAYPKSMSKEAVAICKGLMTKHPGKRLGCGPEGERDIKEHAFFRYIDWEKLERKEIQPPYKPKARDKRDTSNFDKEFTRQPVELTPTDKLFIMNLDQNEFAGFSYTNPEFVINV
Cannabinoid receptor 1 (Homo sapiens), sequence (P21554 whole entry): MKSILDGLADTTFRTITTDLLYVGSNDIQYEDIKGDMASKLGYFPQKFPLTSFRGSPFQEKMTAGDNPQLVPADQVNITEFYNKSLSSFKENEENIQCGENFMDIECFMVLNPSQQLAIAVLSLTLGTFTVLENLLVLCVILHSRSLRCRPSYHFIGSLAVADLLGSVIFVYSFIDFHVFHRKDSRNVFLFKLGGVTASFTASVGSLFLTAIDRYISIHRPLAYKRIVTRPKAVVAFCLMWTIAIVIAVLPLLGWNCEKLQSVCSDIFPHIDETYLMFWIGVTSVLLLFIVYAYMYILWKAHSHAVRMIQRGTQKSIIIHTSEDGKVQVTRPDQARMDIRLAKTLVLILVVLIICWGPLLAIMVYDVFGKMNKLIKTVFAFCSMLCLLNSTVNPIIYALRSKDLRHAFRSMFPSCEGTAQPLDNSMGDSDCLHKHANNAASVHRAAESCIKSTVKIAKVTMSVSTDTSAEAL

## c1ccc(Cc2noc(-c3cn(CCN4CCCC4)c4ccccc34)n2)cc1
[1]
  pKb: 7.2

## O=[N+]([O-])c1ccc2cc(-c3nnc(-c4cccc(O)c4O)o3)oc2c1
Alpha-glucosidase [2]
  IC50: 2 µM
Alpha-glucosidase [3]
  IC50: 12.75 µM

## Cc1ncc(-c2ccc3ccccc3c2)o1
A549 [4]
  IC50: 4.6 µM
MCF7 [5]
  IC50: 4.6 µM
HeLa
  IC50: 4.6 µM

## Cc1ncc(-c2cccnc2)o1
A549 [4]
  IC50: 4.6 µM
MCF7 [5]
  IC50: 4.6 µM
HeLa
  IC50: 4.6 µM

## C/C=C(C)\C=C(/C)[C@@H](O)[C@H](C)[C@@H](O)[C@@H]1OC(=O)/C(CCCCCC)=C/c2coc(n2)[C@H](C)[C@@H](O)C[C@H](O)/C=C/C=C\C[C@@H]1O
[6]
  MIC: 64 µg/mL (≈ 104 µM)

## CC(=O)Oc1ccccc1C1OC(c2ccncc2)=NN1C(C)=O (stereo unspecified)
MCF7 [5]
  IC50: 50 µM
HepG2 [7]
  IC50: 50 µM

## COc1ccc(-c2nnc(-c3cc(Br)c(Br)n3C)o2)cc1
Staphylococcus aureus [8]
  MBIC: 0.78 µg/mL

## O=[N+]([O-])c1ccc2cc(-c3nnc(-c4ccccc4F)o3)oc2c1
Alpha-glucosidase [2]
  IC50: 2 µM
Alpha-glucosidase [3]
  IC50: 12.75 µM

## Clc1ccccc1-c1nnc(Cn2c(CN3CCOCC3)nc3ccccc32)o1
Rattus norvegicus [9]
  inhibition (INH): 74.17%

## C/C=C(C)/C=C(\C)[C@@H](O)[C@H](C)[C@@H](O)[C@@H]1OC(=O)/C(CCCCCC)=C/c2coc(n2)[C@H](C)[C@@H](O)C[C@H](O)/C=C/C=C\C[C@@H]1O
[6]
  MIC: 64 µg/mL (≈ 104 µM)

## COC(CC1OC(=O)CC(O)C/C=C/C(=O)C(C)C(OC)c2coc(n2)-c2coc(n2)-c2coc(n2)/C=C\CCC1C)C(C)CCC(=O)C(C)C(C/C=C/N(C)C=O)OC (stereo unspecified)
A549 [10]
  IC50: 0.022 µM
[11]
  IC50: 0.107 µM
A549 [12]
  IC50: 0.024 µM
MDA-MB-231
  IC50: 0.04 µM
HCT-116
  IC50: 0.073 µM
SK-HEP1
  IC50: 0.08 µM

## Cn1c(-c2nnc(-c3ccc(Cl)cc3)o2)cc(Br)c1Br
Staphylococcus aureus [8]
  MBIC: 0.78 µg/mL

## Cc1nnc(-c2cc(-c3ccc(Cl)cc3)n(-c3ccc(NC(=O)c4ccccc4Cl)cc3)n2)o1
[13]
  MIC: 1.56 µg/mL (≈ 3.18 µM)

## O=c1cc(Nc2ccc(-c3cc(-c4ccc(Cl)cc4Cl)on3)cc2)c2ccccc2o1
Pseudomonas aeruginosa
  MIC: 12.5 µg/mL (≈ 27.8 µM)
Bacillus cereus
  MIC: 12.5 µg/mL (≈ 27.8 µM)

## O=C(CCN1CCN(c2ccc([N+](=O)[O-])cc2)CC1)Nc1ccc2oc(Cc3ccc(Cl)cc3)nc2c1
Rattus norvegicus [14]
  inhibition in vivo at 20 mg/kg: 81.7%

## COc1ccc(-c2nnc(SCCSc3nnc(-c4c[nH]c5ccccc45)n3N)o2)cc1
Escherichia coli
  MIC: 2 µg/mL
Staphylococcus aureus [15]
  MIC: 2 µg/mL (≈ 4.3 µM)

## C/C=C(C)/C=C(\C)[C@@H](O)[C@H](C)[C@@H](O)[C@H](O)[C@@H]1C/C=C\C=C\[C@@H](O)C[C@H](O)[C@@H](C)c2nc(cs2)/C=C(\CCCCCC)C(=O)O1
[6]
  MIC: 16 µg/mL (≈ 25.3 µM)

## O=[N+]([O-])c1ccccc1-c1nc(-c2ccccc2)co1
HepG2 [16]
  IC50: 56.5 µM

## Cn1c(-c2nnc(-c3cc(Br)c(Br)[nH]3)o2)cc(Br)c1Br
Staphylococcus aureus [8]
  MBIC: 0.78 µg/mL

## O=[N+]([O-])c1ccc2cc(-c3nnc(-c4ccc(O)cc4O)o3)oc2c1
Alpha-glucosidase [2]
  IC50: 2 µM
Alpha-glucosidase [3]
  IC50: 12.75 µM

## Cc1nnc(-c2cc(-c3ccc(Cl)cc3)n(-c3ccc(NC(=O)c4ccccc4)cc3)n2)o1
[13]
  MIC: 3.13 µg/mL (≈ 6.87 µM)

## CO[C@@H]1[C@H](N(C)c2ncc(-c3ccccc3)o2)C[C@H]2C[C@]1(C)n1c3ccccc3c3c4c(c5c6ccccc6n2c5c31)C(=O)NC4
[17]
  IC50: 0.5 µM
A549 [18]
  IC50: 0.75 µM

## Cn1c(-c2nnc(-c3ccc(Cl)cc3Cl)o2)cc(Br)c1Br
Staphylococcus aureus [8]
  MBIC: 0.39 µg/mL

## Nc1ccc(-c2nnc(SCCSc3nnc(-c4c[nH]c5ccccc45)n3N)o2)cc1
Escherichia coli
  MIC: 2 µg/mL
Staphylococcus aureus [15]
  MIC: 2 µg/mL (≈ 4.44 µM)

## COc1cc(-c2nnc(SCC(=O)Nc3ccc(/C(C)=N/O)cc3)o2)cc(OC)c1OC
Rattus norvegicus [19]
  inhibition (INH): 96.67%

## COc1ccc(-c2cc(-c3nnc(C)o3)nn2-c2ccc(NC(=O)c3ccc(F)cc3)cc2)cc1
[13]
  MIC: > 50 µg/mL

## Brc1ccccc1-c1nc(-c2ccccc2)co1
HepG2 [16]
  IC50: 16.9 µM

## CC1=NN(c2ccccc2)C(=O)/C1=N/Nc1cccc(-c2nc3ccccc3o2)c1
MCF7 [20]
  IC50: 17 µM
A549 [21]
  IC50: 15.5 µM

## CCC[C@@H]1NC(=O)C2C[C@H](C)CN2C(=O)[C@@H](NC=O)CNC(=O)[C@H](CSSC[C@@H]2NC(=O)c3coc(n3)[C@H](C)NC(=O)C(=O)[C@H](CCC)NC(=O)C3C[C@H](C)CN3C(=O)[C@@H](NC=O)CNC2=O)NC(=O)c2coc(n2)[C@H](C)NC(=O)C1=O (stereo partly specified)
P388
  IC50: 0.83 µM

## Cc1ncc(-c2cnc3ccccc3c2)o1
A549 [4]
  IC50: 4.6 µM
MCF7 [5]
  IC50: 4.6 µM
HeLa
  IC50: 4.6 µM

## COc1ccc(-c2cc(-c3nnc(C)o3)nn2-c2ccc(NC(=O)c3ccccc3)cc2)cc1
[13]
  MIC: > 50 µg/mL

## O=C(NNC(=S)c1ccc(C(F)(F)F)cc1)c1ccc(-c2nnc(-c3ccc4ncccc4c3)o2)cc1
Leishmania major
  IC50: 0.1 µM

## CN[C@H](CC(C)C)C(=O)N[C@H]1C(=O)N[C@@H](CC(N)=O)C(=O)N[C@H]2C(=O)N[C@H]3C(=O)N[C@H](C(=O)N[C@H](C(=O)O)c4cc(O)cc(O)c4-c4cc3ccc4O)[C@H](O)c3ccc(c(Cl)c3)Oc3cc2cc(c3O[C@@H]2O[C@H](CO)[C@@H](O)[C@H](O)[C@H]2O[C@H]2C[C@](C)(N)[C@H](O)[C@H](C)O2)Oc2ccc(cc2Cl)[C@H]1O [VANCOMYCIN]
Staphylococcus aureus [8]
  MBIC: 3.125 µg/mL

## CO[C@@H]1[C@H](N(C)c2ncc(-c3c[nH]c4ccccc34)o2)C[C@H]2C[C@]1(C)n1c3ccccc3c3c4c(c5c6ccccc6n2c5c31)C(=O)NC4
[17]
  IC50: 0.5 µM
A549 [18]
  IC50: 0.45 µM

## CC(=O)Oc1ccc(-c2nc(-c3ccccc3)co2)cc1
HepG2 [16]
  IC50: 16.6 µM
